In patent US4468511A, “C-20- And C-23-Modified macrolide derivatives” (Eli Lilly and Company, priority 1983, dated 1984):
≈ marks a conversion by molar mass, not a printed value. Read-outs that look alike come from different tables or passages of the source.

What was measured:
[1] = tested on: Pasteurella multocida 22A; test: MIC, conventional broth-dilution microtiter test; type: cell-based; conditions: broth-dilution microtiter; Pasteurella multocida 22A; read-out: MIC
Experimental: (§1) Certain of the derivatives are active against some gram-negative bacteria, such as Pasteurella species. The MIC's in Table II were determined by standard agar-dilution assays. The MIC's in Table III were obtained using a conventional broth-dilution microtiter test.

Mycoplasma hyorhinis = test: MIC, conventional broth-dilution microtiter test; type: cell-based; conditions: broth-dilution microtiter; Mycoplasma hyorhinis; read-out: MIC
Experimental: as §1

[2] = tested on: Pasteurella hemolytica 41D; test: MIC, conventional broth-dilution microtiter test; type: cell-based; conditions: broth-dilution microtiter; Pasteurella hemolytica 41D; read-out: MIC
Experimental: as §1

[3] = tested on: Mycoplasma gallisepticum 41313; test: MIC, conventional broth-dilution microtiter test; type: cell-based; conditions: Mycoplasmoides gallisepticum; broth-dilution microtiter; Mycoplasma gallisepticum 41313, Resistant strain; read-out: MIC
Experimental: as §1

[4] = tested on: Pasteurella hemolytica 22C; test: MIC, conventional broth-dilution microtiter test; type: cell-based; conditions: broth-dilution microtiter; Pasteurella hemolytica 22C; read-out: MIC
Experimental: as §1

Streptococcus sp. 80 = test: MIC, conventional broth-dilution microtiter test; type: cell-based; conditions: broth-dilution microtiter; Streptococcus sp. 80; read-out: MIC
Experimental: as §1

Mycoplasma gallisepticum = test: MIC, conventional broth-dilution microtiter test; type: cell-based; conditions: Mycoplasmoides gallisepticum; broth-dilution microtiter; Mycoplasma gallisepticum; read-out: MIC
Experimental: as §1

Mycoplasma synoviae = test: MIC, conventional broth-dilution microtiter test; type: cell-based; conditions: Mycoplasmopsis synoviae; broth-dilution microtiter; Mycoplasma synoviae; read-out: MIC
Experimental: as §1

Staphylococcus aureus = test: MIC, conventional broth-dilution microtiter test; type: cell-based; conditions: broth-dilution microtiter, read-out: MIC
Experimental: as §1

[5] = tested on: Mycoplasma gallisepticum 34159; test: MIC, conventional broth-dilution microtiter test; type: cell-based; conditions: Mycoplasmoides gallisepticum; broth-dilution microtiter; Mycoplasma gallisepticum 34159, Resistant strain; read-out: MIC
Experimental: as §1

[6] = tested on: Pasteurella hemolytica 23C; test: MIC, conventional broth-dilution microtiter test; type: cell-based; conditions: broth-dilution microtiter; Pasteurella hemolytica 23C; read-out: MIC
Experimental: as §1

[7] = tested on: Pasteurella multocida 68C; test: MIC, conventional broth-dilution microtiter test; type: cell-based; conditions: broth-dilution microtiter; Pasteurella multocida 68C; read-out: MIC
Experimental: as §1

[8] = tested on: Pasteurella multocida 60A; test: MIC, conventional broth-dilution microtiter test; type: cell-based; conditions: broth-dilution microtiter; Pasteurella multocida 60A, Avian isolate; read-out: MIC
Experimental: as §1

[9] = tested on: Pasteurella multocida 17E; test: MIC, conventional broth-dilution microtiter test; type: cell-based; conditions: broth-dilution microtiter; Pasteurella multocida 17E, Bovine isolate; read-out: MIC
Experimental: as §1

[10] = tested on: Pasteurella multocida 40G; test: MIC, conventional broth-dilution microtiter test; type: cell-based; conditions: broth-dilution microtiter; Pasteurella multocida 40G; read-out: MIC
Experimental: as §1

[11] = tested on: Streptococcus pyogenes 9960; test: MIC, standard agar-dilution assay; type: cell-based
Experimental: as §1

[12] = tested on: Streptococcus pyogenes C203; test: MIC, standard agar-dilution assay; type: cell-based
Experimental: as §1

Escherichia coli TEM = test: MIC, standard agar-dilution assay; type: cell-based; conditions: agar-dilution; Escherichia coli TEM; read-out: MIC
Experimental: as §1

[13] = tested on: Streptococcus Group D X66; test: MIC, standard agar-dilution assay; type: cell-based
Experimental: as §1

[14] = tested on: Staphylococcus aureus X1.1; test: MIC, standard agar-dilution assay; type: cell-based
Experimental: as §1

[15] = tested on: Klebsiella pneumoniae X26; test: MIC, standard agar-dilution assay; type: cell-based
Experimental: as §1

[16] = tested on: Klebsiella pneumoniae KAE; test: MIC, standard agar-dilution assay; type: cell-based; conditions: agar-dilution; Klebsiella pneumoniae KAE; read-out: MIC
Experimental: as §1

[17] = tested on: Staphylococcus aureus V41; test: MIC, standard agar-dilution assay; type: cell-based; conditions: Staphylococcus aureus, V41
Experimental: as §1

[18] = tested on: Streptococcus pneumoniae Park I; test: MIC, standard agar-dilution assay; type: cell-based; conditions: Streptococcus pneumoniae
Experimental: as §1

Escherichia coli EC14 = test: MIC, standard agar-dilution assay; type: cell-based; conditions: agar-dilution; Escherichia coli EC14; read-out: MIC
Experimental: as §1

[19] = tested on: Staphylococcus aureus S13E; test: microbe, parasite or virus in culture; type: cell-based
Experimental: (§2) The MIC's in Table II were determined by standard agar-dilution assays. The MIC's in Table III were obtained using a conventional broth-dilution microtiter test.

[20] = tested on: Staphylococcus epidermidis EPI1; test: microbe, parasite or virus in culture; type: cell-based; conditions: agar-dilution; Staphylococcus epidermidis EPI1; read-out: MIC
Experimental: as §2

[21] = tested on: Haemophilus influenzae 76; test: MIC, standard agar-dilution assay; type: cell-based; conditions: Haemophilus influenzae, 76
Experimental: as §2

[22] = tested on: Haemophilus influenzae C.L.; test: MIC, standard agar-dilution assay; type: cell-based
Experimental: as §2

[23] = tested on: Staphylococcus aureus X400; test: MIC, standard agar-dilution assay; type: cell-based
Experimental: as §2

[24] = tested on: Staphylococcus epidermidis EPI2; test: MIC, standard agar-dilution assay; type: cell-based
Experimental: as §2

[25] = tested on: Streptococcus pyogenes C203; test: Protection of mice experimentally infected with S. pyogenes C203; type: in vivo; conditions: mg/kg × 2, doses given 1 and 4 hours postinfection
Experimental: Some of the derivatives of this invention have shown in vivo antimicrobial activity against experimentally-induced infections in laboratory animals. When two doses of test compound were administered to mice experimentally infected with S. pyogenes C203, the activity observed was measured as an ED50 value [effective dose in mg/kg to protect 50% of the test animals: see Warren Wick, et al., J. Bacteriol. 81, 233-235 (1961)].

[26] = agar-dilution, Streptococcus 9960, read-out: MIC
[27] = agar-dilution, Streptococcus Group D X66, read-out: MIC
[28] = agar-dilution, Klebsiella pneumoniae X26, read-out: MIC
[29] = agar-dilution, Haemophilus influenzae C.L., Ampicillin-sensitive strain, read-out: MIC
[30] = Staphylococcus epidermidis, EPI2
[31] = agar-dilution, Streptococcus pyogenes C203, read-out: MIC
[32] = agar-dilution, Staphylococcus aureus X1.1, read-out: MIC
[33] = agar-dilution, Staphylococcus aureus X400, Methicillin-resistant strain, read-out: MIC

Compound	MIC [1] [µg/mL]	MIC (Mycoplasma hyorhinis) [µg/mL]	MIC [2] [µg/mL]	MIC [4] [µg/mL]	MIC (Streptococcus sp. 80) [µg/mL]	MIC (Mycoplasma gallisepticum) [µg/mL]	MIC (Mycoplasma synoviae) [µg/mL]	MIC (Staphylococcus aureus) [µg/mL]	MIC [5] [µg/mL]	MIC [6] [µg/mL]	MIC [7] [µg/mL]	MIC [8] [µg/mL]	MIC [9] [µg/mL]	MIC [10] [µg/mL]	MIC (Escherichia coli TEM) [µg/mL]	MIC [16] [µg/mL]	MIC [17] [µg/mL]	MIC [18] [µg/mL]	MIC (Escherichia coli EC14) [µg/mL]	MIC [19] [µg/mL]	further results
CCC1OC(=O)CC(O)C(C)C(OC2OC(C)C(O)C(N(C)C)C2O)C(CCN(C)C)CC(C)C(=O)C=CC(C)=CC1CO (stereo not shown) [Compound 2, 20-N-Dimethylamino-20-deoxy-20-dihydro-OMT]	25 (≈ 39.9 µM)	50 (≈ 79.8 µM)	50 (≈ 79.8 µM)	50 (≈ 79.8 µM)	25 (≈ 39.9 µM)	50 (≈ 79.8 µM)	> 50	50 (≈ 79.8 µM)	> 50	50 (≈ 79.8 µM)	12.5 (≈ 19.9 µM)	25 (≈ 39.9 µM)	25 (≈ 39.9 µM)	50 (≈ 79.8 µM)	128 (≈ 204 µM)	> 128	32 (≈ 51.1 µM)	32 (≈ 51.1 µM)	> 128	32 (≈ 51.1 µM)	MIC [3]: 50 µg/mL (≈ 79.8 µM); MIC [11, 26]: > 128 µg/mL; MIC ([12]; Streptococcus pyogenes, C203): 32 µg/mL (≈ 51.1 µM); MIC [13, 27]: > 128 µg/mL; MIC ([14]; Staphylococcus aureus, X1.1): 32 µg/mL (≈ 51.1 µM); MIC [15, 28]: 16 µg/mL (≈ 25.5 µM); MIC [20]: 16 µg/mL (≈ 25.5 µM); MIC [21]: 32 µg/mL (≈ 51.1 µM); MIC [22, 29]: 16 µg/mL (≈ 25.5 µM); MIC ([23]; Staphylococcus aureus, X400): 64 µg/mL (≈ 102 µM); MIC [24, 30]: 64 µg/mL (≈ 102 µM)
CCC1OC(=O)CC(O)C(C)C(OC2OC(C)C(O)C(N(C)C)C2O)C(CCNC)CC(C)C(=O)C=CC(C)=CC1CO (stereo not shown) [Compound 3, 20-N-Methylamino-20-deoxy-20-dihydro-OMT]	50 (≈ 81.6 µM)	> 50	50 (≈ 81.6 µM)	50 (≈ 81.6 µM)	50 (≈ 81.6 µM)	50 (≈ 81.6 µM)	25 (≈ 40.8 µM)	50 (≈ 81.6 µM)	> 50	50 (≈ 81.6 µM)	25 (≈ 40.8 µM)	50 (≈ 81.6 µM)	50 (≈ 81.6 µM)	50 (≈ 81.6 µM)	128 (≈ 209 µM)	> 128	64 (≈ 104 µM)	16 (≈ 26.1 µM)	> 128	64 (≈ 104 µM)	MIC [11, 26]: > 128 µg/mL; MIC [12, 31]: 128 µg/mL (≈ 209 µM); MIC [13, 27]: > 128 µg/mL; MIC [14, 32]: 32 µg/mL (≈ 52.2 µM); MIC ([15]; Klebsiella pneumoniae, X26): 64 µg/mL (≈ 104 µM); MIC [20]: 32 µg/mL (≈ 52.2 µM); MIC [21]: 128 µg/mL (≈ 209 µM); MIC ([22]; Haemophilus influenzae): 128 µg/mL (≈ 209 µM); MIC [23, 33]: 128 µg/mL (≈ 209 µM); MIC [24, 30]: 64 µg/mL (≈ 104 µM)
CCC1OC(=O)CC(O)C(C)C(OC2OC(C)C(OC3CC(C)(O)C(O)C(C)O3)C(N(C)C)C2O)C(CCNCCc2ccccc2)CC(C)C(=O)C=CC(C)=CC1CO (stereo not shown) [Compound 16]	> 50	> 50	> 50	> 50	12.5 (≈ 14.8 µM)	6.25 (≈ 7.38 µM)	6.25 (≈ 7.38 µM)	12.5 (≈ 14.8 µM)	> 50	> 50	> 50	> 50	> 50	50 (≈ 59 µM)	> 128	> 128	32 (≈ 37.8 µM)	4 (≈ 4.72 µM)	> 128	32 (≈ 37.8 µM)	ED50 ([25]; C203, mice, oral, read-out: ED50 Oral): 88 mg/kg; ED50 ([25]; C203, sc, mice, subcutaneous, read-out: ED50 Subcutaneous): 10.4 mg/kg; MIC [3]: > 50 µg/mL; MIC [11]; 9960: 32 µg/mL (≈ 37.8 µM); MIC [12, 31]: 8 µg/mL (≈ 9.44 µM); MIC [13]: 32 µg/mL (≈ 37.8 µM); MIC [14, 32]: 16 µg/mL (≈ 18.9 µM); MIC [15, 28]: 128 µg/mL (≈ 151 µM); MIC [20]: 16 µg/mL (≈ 18.9 µM); MIC [21]: 16 µg/mL (≈ 18.9 µM); MIC [22, 29]: 64 µg/mL (≈ 75.6 µM); MIC [23, 33]: 64 µg/mL (≈ 75.6 µM); MIC ([24]; agar-dilution, Staphylococcus epidermidis EPI2, read-out: MIC): 64 µg/mL (≈ 75.6 µM)
